Laboratory results: patent US20220117949A1, “LTA4H INHIBITORS FOR THE TREATMENT OF HIDRADENITIS SUPPURATIVA” (NOVARTIS AG, priority 2019, published 2022)

Key:
[1] = system: LTB4 biosynthesis in lesional skin biopsies of HS patients; experiment: LTB4 biosynthesis in ionophore-stimulated skin biopsies of HS patients (LC-MS/MS); assay type: cell-based, human; conditions: 5 uM inhibitor 2 h, then 2 h 10 ug/mL ionophore
Experimental: Frozen human skin biopsies from healthy skin or discard HS lesions (on average 500 mg) were pulverized using mechanical force (Covaris) and homogenized in 4 mL of methanol containing deuterium labelled internal standards (ISTDs) using a bead-beating device (2×20 sec cycles of 5000 rpm, Precellys) maintained at low temperature. Then, samples were kept at −20° C./45 min to allow for protein precipitation and centrifuged at 13000 rpm for 10 min at 4° C. The supernatants were then evaporated (Genevac) until complete dryness and reconstituted in 70 μL of methanol:water (50%/50%; v/v) followed by injection in the LC-MS/MS system. Calibration curves were freshly prepared by serial dilution of pure standards in methanol:water (50%/50%, v/v) containing ISTDs and quantitation was done by comparing metabolite to ISTD peak area ratios in samples to that of calibrators.
Two analytical platforms were employed for data acquision depending on instrument availability: 1) Waters H class UPLC system coupled to a Waters XevoTQS triple quadrupole mass (QQQ) spectrometer and 2) a Dionex Ultimate 3000RS UPLC coupled to a Sciex6500+ QQQ. Separation of lipids was achieved using reverse-phase columns ACQUITY UPLC BEH C18 1.7 μm, 2.1×50 mm and CORTECS UPLC C18 1.6 μm, 2.1×50 mm heated at 40° C., respectively. The flow rate was set to 0.180 mL/min and the mobile phase consisted of water-acetic acid (99.99/0.01; v/v) (A) and methanol-acetonitrile-acetic acid (B) (50/50/0.01; v/v/v). The eluent gradient was maintained at 45% of B for 2 min, follow by 45%-65% of B during 2-16 min, from 65%-100% during 16-19 min and 100% of B from 19-22 min. From 23-30 min the column was re-equilibrated with initial conditions. Ionization was performed using an ESI source operated in negative ion mode. Fragmentation was tuned for each compound individually.
. Skin biopsies were then harvested, lipids extracted and analyzed for generation of LTB4 by LC-MS/MS as described above. Stimulated skin biopsies of HS lesions generated a large amount of the lipid mediator LTB4. […]. (FIGS. 10 and 11)
Lesional skin biopsies of HS patients were left untreated or fully stimulated with ionophore to induce LTB4 biosynthesis in the presence or absence of a LTA4H inhibitor
LTB4 quantities are given in fmol/mg tissue. Shown are representative results obtained with one donor per compound out of several tested.

[2] = First in human trial Part 2 (MAD): plasma pharmacokinetics
Experimental: (§1) The study consisted of a part 1, single ascending dose (SAD) and a part 2 multiple ascending dose (MAD).
(§2) Cohort 1: multiple once daily (qd) oral dose of 5 mg or matching placebo Cohort 2: multiple once daily (qd) oral dose of 15 mg or matching placebo Cohort 3: multiple oral daily dose of 20 mg or matching placebo administered twice daily (bid) Cohort 4: multiple oral daily dose of 40 mg or matching placebo administered twice daily (bid) Cohort 5: multiple oral daily dose of 80 mg or matching placebo administered twice daily (bid) Part 2 Multiple Ascending Dose Design (qd)—Overview of the Study Part 2 Multiple Ascending Dose Design (Bid)—Overview of the Study

clinical = conditions: for mean concentration in blister fluid: pre-dose on Day 9
Excerpt: In parts 1 and 2 of the clinical study (SAD and MAD), skin blisters were induced on the arm of subjects in selected cohorts.
(§3) Blister fluid samples were collected at Day 1 pre-dose and Day 2 pre-dose in SAD cohort 4 as well as Day 1 pre-dose and Day 9 predose in MAD cohort 2-5.

[3] = system: LTB4 in human skin blister fluids; experiment: LTB4 in cantharidin induced skin blister fluid (FIH); assay type: in vivo; conditions: 40 mg daily dose (20 mg BID)
Experimental: In parts 1 and 2 of the clinical study (SAD and MAD), skin blisters were induced on the arm of subjects in selected cohorts. For this 10 mm diameter filter paper discs humected with a solution of cantharidin (such as cantharone) were applied on the arm of the subject, inducing an epidermal blister, and the blister fluid was collected approximately 24 hours (+/−1 hr) after the application.
as §3
Blister fluid samples were received frozen on dry ice and stored at −70° C. or below until analysis. On the day of analysis, samples were taken out of the freezer and immediately extracted after Thawing.
90 μL of blister fluid (sample or QC sample) was enriched with 5 μL of internal standard solution IS-L-2 (deuterated Leukotrienes and lipoxin at 50 ng/mL) and vortexed in a micro centrifuge tube. 90 μL of methanol with 0.1% formic acid was added. This was followed by 5 minutes vortex mixing and 10 minutes sonication on ice. The samples were incubated at −20° C. in a freezer for 40 minutes. This was followed by centrifugation at 16,000 rpm (27,500×g) at 4° C. for 20 minutes. 160 μL of the supernatant was transferred onto Millipore 5 kDa MWCO filters. MWCO filters have previously been cleaned by centrifuging 500 μL methanol/water 1/1 thru the filters. […]

[4] = system: Leukotriene B4 (LTB4) in blood; experiment: Leukotriene B4 (LTB4) in human plasma of ex vivo stimulated whole blood (FIH PD biomarker, LC-MS/MS)
Experimental: Therefore, LTB4 concentrations were determined in plasma of ex-vivo stimulated whole blood by a LC-MS/MS method.
Ex-vivo stimulation was performed at the clinical site according to the following procedure: Whole blood (500 μL) were stimulated for 30 min using Calcium Ionophore A23187.
Human plasma was processed with organic precipitation followed by separation by reverse phase high performance liquid chromatography with tandem mass spectrometric detection.
AB Sciex QTrap 5500 MS/MS Turbo Spray Ion Drive negative ion mode.
Sample from each subject and time point was prepared and analyzed in three aliquots. Aliquot one and two contained plasma from ex-vivo stimulated whole blood, while aliquot three as negative control contained plasma from non-stimulated whole blood.
LTB4 concentration data were calculated as mean of concentration of aliquot one and two. Concentration of aliquot three was not be included in the calculation. The change from baseline and percent inhibition (percent of baseline) for each biomarker was calculated. Baseline was the mean of the Baseline and Day 1, −1 h measurements.

[5] = First in human trial Part 1 (SAD): plasma pharmacokinetics
Excerpt: as §1
(§4) Part 1 was a randomized, subject-blinded and Investigator-partial-blinded, placebo-controlled, single ascending oral dose study.

[6] = First in human trial (SAD/MAD): safety and tolerability in healthy subjects
Experimental: as §1, §4, §2

[7] = 5 mg qd to 80 mg bid (16-fold per dosing interval)

N[C@@H](CC(=O)O)Cn1nnc(-c2ccc(Oc3ccc(Cl)cc3)cc2)n1 [compound of embodiment 3D, (S)-3-amino-4-(5-(4-(4-chlorophenoxy)-phenyl)-2H-tetrazol-2-yl)butanoic acid]
LTB4 generation by stimulated skin biopsies of HS lesions [1]: almost no LTB4
LTB4 generation by stimulated skin biopsies of HS lesions ([1]; listed as Compound of embodiment 3D): suppresses

N[C@@H](CC(=O)O)Cn1nnc(-c2ccc(Oc3ncc(Cl)cc3F)cc2)n1 [compound of example 1, (S)-3-amino-4-(5-(4-((5-chloro-3-fluoropyridin-2-yl)oxy)phenyl)-2H-tetrazol-2-yl)butanoic acid]
LTB4 generation by stimulated skin biopsies of HS lesions [1]: almost no LTB4
LTB4 generation by stimulated skin biopsies of HS lesions ([1]; listed as Compound of Example 1): suppresses
AUC on Day 12 (AUC0-12 h,ss bid; AUC0-24 h,ss qd) increase with dose [2, 7]: 20.9 fold
Cmax on Day 12 increase with dose [2, 7]: 17.9 fold
time to reach steady state exposure ([2]; BID oral dosing, fed state): 3 to 4 days
increase in dose over which AUCtau can be considered dose proportional ([2]; MAD): ≤ 6.29 fold
increase in dose over which Cmax,ss can be considered dose proportional ([2]; MAD): up to 2.12 fold
accumulation to steady state ([2]; all higher doses (above 5 mg qd)): ≤ 1.4 fold
mean Racc, day 1 ([2]; day 1 of the bid regimen): 1.09-1.29
mean accumulation to steady state ([2]; lowest dose of 5 mg qd): 2.1 fold
time at which steady state is achieved ([2]; morning pre-dose concentrations, MAD): ~3 days
dose proportionality criteria for AUCtau ([2]; steady state, 5 mg qd to 40 mg bid): met
mean concentration in blister fluid (clinical; Part 2, 15 mg qd): 4.62 ng/mL
mean concentration in blister fluid (clinical; Part 2, 80 mg bid): 233 ng/mL
Kp at 24 h (clinical; human, in vivo, 30 mg): 0.14
concentration at 24 h (clinical; human, in vivo, 30 mg): 4.67 ng/mL
suppression of LTB4 in human skin blister fluids [3]: 90%
suppression of LTB4 in blood at steady state ([4]; 40 mg daily dose (20 mg BID)): nearly complete suppression
blood cell stimulated LTB4 release, reduction from baseline ([4]; SAD 5 mg, at 24 hours): 25-50%
dose proportionality of AUClast over the whole dose range ([5]; 5 mg to 2 times 100 mg): demonstrated
AUC0-24 h increase with dose ([5]; 40-fold increase in daily dose (5 mg to 100 mg bid)): 75 fold
increase in dose over which AUC0-24 h can be considered dose proportional ([5]; SAD): ≤ 2.57 fold
increase in dose over which Cmax can be considered dose proportional ([5]; SAD): up to 4.50 fold
Cmax increase with dose ([5]; dose increase from 5 to 100 mg (20-fold)): 21.7 fold
Tmax ([5]; human, in vivo, po): 1 to 1.5 h
half-life ([5]; human, in vivo, po): 245 to 513 h
findings in physical exam, vital signs or ECGs related to compound ([6]; SAD and MAD, healthy subjects): No significant findings
maximal tolerated dose ([6]; SAD up to 200 mg total daily dose, MAD up to 80 mg BID for 12 days): no maximal tolerated dose was established
adverse events leading to study discontinuation ([6]; SAD up to 2 x 100 mg, MAD up to 80 mg BID for 12 days, healthy subjects): No adverse events led to study discontinuation
tolerability ([6]; doses up to 80 mg bid (160 mg daily dose) over 12 days, healthy subjects): well tolerated
treated subjects with increases in lipase ([6]; one SAD 5 mg, two MAD 80 mg BID, asymptomatic, transient): Three
amylase increase accompanying lipase increase ([6]; the three subjects with lipase elevations, mild): ≤ 1.5 ULN
